Measured values taken from US20090012130A1, “Strategies for Designing Drugs that Target the Sir2 Family of Enzymes” (priority 2005, published 2009).
Entries after “also recorded” stand apart in the source; their conditions may differ.

Experiments:
Sir2Tm wild type [1] = target: T1, Sir2Tm wild type (Thermotoga maritima, UniProt Q9WYW0); assay type: biochemical; set-up: made in house; host or cells: E. coli
Protocol: (§1) The deacetylation activity was measured using the Fluor de Lys-SirT1 assay (Biomol), using a peptide containing amino acids 379-RHK-K(Ac)-382 of p53 as substrate. […] The reactions were carried out at 37° C. in a 50 μL reaction volume containing 50 mM Tris, pH 8, 50 mM NaCl and 400 μM fluorolabeled peptide (˜10 times KM). […] Reactions were done at least in triplicate. The data were fitted to the Michaelis-Menten equation using SigmaPlot to obtain the kinetic constants. […] The data were fitted to equation (1) using SigmaPlot (SYSTAT) to calculate the IC50 values:
(§2) vI=v0(1−(I/(IC50+I))) Equation (1)
(§3) where v0 is the initial rate of the uninhibited reaction and vI is the initial rate of the reaction at concentration I of inhibitor.

Sir2Tm-D101N mutant [2] = target: T2, Sir2Tm-D101N mutant (Thermotoga maritima, UniProt Q9WYW0, D101N); test: biochemical; assay type: biochemical; set-up: made in house; host or cells: E. coli; conditions: for apparent kcat of cosubstrate-dependent deacetylation / Km / IC50: Sir2Tm-D101N mutant; for Km: 400 μM fluorolabeled peptide, read-out: apparent KM for cosubstrate; for IC50: fluorolabeled p53 peptide, 37° C.
Protocol: as §1, §2, §3

Sir2Tm wild type [3] = target: T1, Sir2Tm wild type; conditions: 0.1 mM ^14C-labelled base, 2 mM NAD^+, 500 μM acetylated p53 peptide, 37° C., 3 hours
Protocol: (§4) After incubation at 37° C. for 3 hours, 8 μL of each reaction was spotted on a Polygram SIL-G TLC plate (Machevey-Nagel, 20×20). The plate was developed in a pre equilibrated chamber with 80:20 ethanol:2.5 M ammonium acetate. After chromatography, the plate was air dried and exposed to a phosphorimaging screen overnight.

Sir2Tm-D101N mutant [4] = target: T2, Sir2Tm-D101N mutant; conditions: Sir2Tm-D101N mutant 2.5 mg/mL; 0.1 mM ^14C-labelled base, 2 mM NAD^+, 500 μM acetylated p53 peptide, 37° C., 3 hours
Protocol: as §4

T2 sequence (Q9WYW0 whole entry D101N): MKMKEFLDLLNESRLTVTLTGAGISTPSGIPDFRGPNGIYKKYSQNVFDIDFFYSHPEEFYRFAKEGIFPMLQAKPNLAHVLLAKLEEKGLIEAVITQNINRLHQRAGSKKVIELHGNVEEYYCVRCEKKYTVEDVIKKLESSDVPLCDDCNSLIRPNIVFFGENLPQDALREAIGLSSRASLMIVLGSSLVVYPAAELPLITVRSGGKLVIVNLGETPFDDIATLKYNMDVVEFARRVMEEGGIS
T1 sequence (Q9WYW0 whole entry, the tested form may be a part): as the sequence (Q9WYW0 whole entry D101N) above, with N101D counted along it

SMILES | apparent kcat of cosubstrate-dependent deacetylation (Sir2Tm-D101N mutant [2]) | Km (Sir2Tm-D101N mutant [2]) [µM] | base exchange activity (formation of labelled dinucleotide) (Sir2Tm wild type [3]) | base exchange activity (formation of labelled dinucleotide) (Sir2Tm-D101N mutant [4]) | also measured
NC(=O)c1ccc[n+]([C@@H]2O[C@H](COP(=O)([O-])OP(=O)(O)OC[C@H]3O[C@@H](n4cnc5c(N)ncnc54)[C@H](O)[C@@H]3O)[C@@H](O)[C@H]2O)c1 [NAD^+, nicotinamide adenine dinucleotide] | (1.8±0.1)×10^−3 s^−1 | 1170 ± 180 |  |  | kcat of cosubstrate-dependent deacetylation (Sir2Tm wild type [1]): 0.170 ± 0.006 s⁻¹; Km (Sir2Tm wild type [1]; 400 μM fluorolabeled peptide, read-out: KM for cosubstrate): 53 ± 11 µM; fold increase of KM, D101N mutant versus wild type (Sir2Tm-D101N mutant [2]; Sir2Tm-D101N versus wild type Sir2Tm): 22 fold
O=C(O)c1cccnc1 [nicotinic acid] |  |  | cannot do; also recorded: no detectable formation of NAAD | able to synthesize ^14C-labelled NAAD | inhibition of wild type enzyme deacetylation activity (Sir2Tm wild type [1]; inhibitor added to concentrations of up to 100 mM): fail to inhibit; IC50 (Sir2Tm-D101N mutant [2]; IC50, inhibition of NAAD-dependent deacetylation activity, 2 mM NAAD): 6.2 ± 2 mM; IC50 (Sir2Tm-D101N mutant [2]; IC50, inhibition of NAD^+-dependent deacetylation activity, 2 mM NAD^+): 11.3 ± 3.3 mM
NC(=O)c1cccnc1 [nicotinamide] |  |  | could catalyze formation of labeled NAD^+ | could catalyze formation of labeled NAD^+ | 
Nc1ncnc2c1ncn2[C@@H]1O[C@H](COP(=O)(O)OP(=O)(O)OC[C@H]2O[C@@H]([n+]3cccc(C(=O)O)c3)[C@H](O)[C@@H]2O)[C@@H](O)[C@H]1O [NAAD, nicotinic acid adenine dinucleotide] | (1.1±0.1)×10^−3 s^−1 | 617 ± 43 |  |  | deacetylation activity with the dinucleotide as cosubstrate (Sir2Tm wild type [1]; up to 2.56 mg/ml enzyme, incubation 4 hours): no detectable deacetylation activity; also recorded: undetectable
